# Measurements as given in PubChem BioAssay AID248 (DTP/NCI, 2004).
# “And” between values parts separate entries of the source, which are not always exact repeats. Equal values may be shown once. Toxic doses and inconclusive results are not listed.
# System: L1210 leukemia ip in BDF1 mice, survival T/C
# Assay: NCI In Vivo Anticancer Drug Screen. Data for tumor model L1210 Leukemia (intraperitoneal) in B6D2F1 (BDF1) mice
# Details: endpoint: mean survival time, higher = longer survival
# Procedure, shortened: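 Mice bearing the transplanted tumor received compound or vehicle. Survival of the treated group was divided by that of the vehicle-treated control group to give the ratio.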
# [1] = dose: 25.0 mg/kg/injection, schedule: Q01DX009 (ip), vehicle: saline with Tween-80
# [2] = dose: 100.0 mg/kg/injection, schedule: Q04DX002 (ip), vehicle: saline
# [3] = dose: 200.0 mg/kg/injection, schedule: Q04DX002 (ip), vehicle: saline
# [4] = dose: 400.0 mg/kg/injection, schedule: Q04DX002 (ip), vehicle: saline
# [5] = dose: 100.0 mg/kg/injection, schedule: Q01DX001 (ip), vehicle: saline
# [6] = dose: 200.0 mg/kg/injection, schedule: Q01DX001 (ip), vehicle: saline
# [7] = dose: 400.0 mg/kg/injection, schedule: Q01DX001 (ip), vehicle: saline
# [8] = dose: 100.0 mg/kg/injection, schedule: Q01DX009 (ip), vehicle: saline
# [9] = dose: 200.0 mg/kg/injection, schedule: Q01DX009 (ip), vehicle: saline
# [10] = dose: 100.0 mg/kg/injection, schedule: Q01DX009 (ip), vehicle: Klucel (hydroxypropylcellulose) (HPC)
# [11] = dose: 200.0 mg/kg/injection, schedule: Q01DX009 (ip), vehicle: Klucel (hydroxypropylcellulose) (HPC)
# [12] = dose: 400.0 mg/kg/injection, schedule: Q01DX009 (ip), vehicle: Klucel (hydroxypropylcellulose) (HPC)
# [13] = dose: 100.0 mg/kg/injection, schedule: Q04DX003 (ip), vehicle: gum acacia
# [14] = dose: 200.0 mg/kg/injection, schedule: Q04DX003 (ip), vehicle: gum acacia
# [15] = dose: 400.0 mg/kg/injection, schedule: Q04DX003 (ip), vehicle: gum acacia
# [16] = dose: 50.0 mg/kg/injection, schedule: Q01DX009 (ip), vehicle: saline with Tween-80
# [17] = dose: 100.0 mg/kg/injection, schedule: Q01DX009 (ip), vehicle: saline with Tween-80
# [18] = dose: 200.0 mg/kg/injection, schedule: Q01DX009 (ip), vehicle: saline with Tween-80
smiles,measurement,setting,value
O=C(Nc1ccc(C2=NCCCN2)cc1)Nc1cccc(C(=O)Nc2ccc(C3=NCCCN3)cc2)c1,T/C,"dose: 1.25 mg/kg/injection, schedule: Q01DX Z (ip), vehicle: carboxymethylcellulose (CMC)",101 % of control
same,T/C,"dose: 2.5 mg/kg/injection, schedule: Q01DX Z (ip), vehicle: carboxymethylcellulose (CMC)",106 % of control
same,T/C,"dose: 5.0 mg/kg/injection, schedule: Q01DX Z (ip), vehicle: carboxymethylcellulose (CMC)",109 % of control
same,T/C,"dose: 7.5 mg/kg/injection, schedule: Q01DX Z (ip), vehicle: carboxymethylcellulose (CMC)",112 % of control
same,T/C,"dose: 10.0 mg/kg/injection, schedule: Q01DX Z (ip), vehicle: carboxymethylcellulose (CMC)",162 % of control
same,T/C,"dose: 15.0 mg/kg/injection, schedule: Q01DX Z (ip), vehicle: carboxymethylcellulose (CMC)",171 % of control
same,T/C,"dose: 20.0 mg/kg/injection, schedule: Q01DX Z (ip), vehicle: carboxymethylcellulose (CMC)",190 % of control
same,T/C,"dose: 30.0 mg/kg/injection, schedule: Q01DX Z (ip), vehicle: carboxymethylcellulose (CMC)",118 % of control
same,T/C,"dose: 40.0 mg/kg/injection, schedule: Q01DX Z (ip), vehicle: carboxymethylcellulose (CMC)",86 % of control
same,T/C,"dose: 62.0 mg/kg/injection, schedule: Q01DX Z (oral), vehicle: carboxymethylcellulose (CMC)",102 % of control
same,T/C,"dose: 125.0 mg/kg/injection, schedule: Q01DX Z (oral), vehicle: carboxymethylcellulose (CMC)",105 % of control
same,T/C,"dose: 250.0 mg/kg/injection, schedule: Q01DX Z (oral), vehicle: carboxymethylcellulose (CMC)",102 % of control
same,T/C,"dose: 500.0 mg/kg/injection, schedule: Q01DX Z (oral), vehicle: carboxymethylcellulose (CMC)",107 % of control
CCCCCCCCCCCCCCCc1ccc(C(=O)C[n+]2ccccc2)cc1,T/C,"dose: 16.5 mg/kg/injection, schedule: Q01DX009 (ip), vehicle: saline with Tween-80",114 % of control
same,T/C,[1],120 % of control
CC1(c2ccccc2)CC1(Br)Br (stereo not given),T/C,[2],95 % of control
same,T/C,[3],95 % of control
same,T/C,[4],100 % of control
CC(=O)Nc1ccc(OC(=O)Oc2ccc(NC(C)=O)cc2)cc1,T/C,"dose: 50.0 mg/kg/injection, schedule: Q01DX001 (ip), vehicle: saline",101 % of control
same,T/C,[5],97 % of control
same,T/C,[6],95 % of control
same,T/C,[7],95 % of control
CC(=O)c1c(C)cc(C(C)(C)C)cc1C,T/C,[8],97 % of control
same,T/C,"dose: 100.0 mg/kg/injection, schedule: Q04DX003 (ip), vehicle: saline",105 % of control
same,T/C,[9],100 % of control
same,T/C,"dose: 200.0 mg/kg/injection, schedule: Q04DX003 (ip), vehicle: saline",92 % of control
same,T/C,"dose: 400.0 mg/kg/injection, schedule: Q01DX009 (ip), vehicle: saline",108 % of control
same,T/C,"dose: 400.0 mg/kg/injection, schedule: Q04DX003 (ip), vehicle: saline",100 % of control
O=C1CCC(=O)N1C1C=CC=CC=C1,T/C,"dose: 100.0 mg/kg/injection, schedule: Q04DX003 (ip), vehicle: saline with Tween-80",98 % of control
same,T/C,"dose: 200.0 mg/kg/injection, schedule: Q04DX003 (ip), vehicle: saline with Tween-80",97 % of control
same,T/C,"dose: 400.0 mg/kg/injection, schedule: Q04DX003 (ip), vehicle: saline with Tween-80",96 % of control
O=C(O)/C=C/C(=O)Nc1ccc([N+](=O)[O-])c(C(F)(F)F)c1,T/C,[10],107 % of control
same,T/C,[11],112 % of control
O=C1C=CC(=O)C2C1C1(Cl)CC2(Cl)C(Cl)=C1Cl (stereo not given),T/C,"dose: 6.25 mg/kg/injection, schedule: Q04DX002 (ip), vehicle: Klucel (hydroxypropylcellulose) (HPC)",100 % of control
same,T/C,"dose: 12.5 mg/kg/injection, schedule: Q04DX002 (ip), vehicle: Klucel (hydroxypropylcellulose) (HPC)",95 % of control
same,T/C,"dose: 25.0 mg/kg/injection, schedule: Q04DX002 (ip), vehicle: Klucel (hydroxypropylcellulose) (HPC)",100 % of control and 108 % of control
COc1cccc(CNCc2cccc(OC)c2O)c1O,T/C,[5],96 % of control
C1CCC(C2CC2)CC1,T/C,"dose: 50.0 mg/kg/injection, schedule: Q01DX009 (ip), vehicle: saline",97 % of control
same,T/C,[8],94 % of control
same,T/C,[9],94 % of control
CC(=O)[O][Pb]([c]1ccccc1)([c]1ccccc1)[c]1ccccc1,T/C,"dose: 0.5 mg/kg/injection, schedule: Q01DX015 (ip), vehicle: carboxymethylcellulose (CMC)",112 % of control
same,T/C,"dose: 1.0 mg/kg/injection, schedule: Q01DX015 (ip), vehicle: carboxymethylcellulose (CMC)",90 % of control
same,T/C,"dose: 2.0 mg/kg/injection, schedule: Q01DX015 (ip), vehicle: carboxymethylcellulose (CMC)",87 % of control
same,T/C,"dose: 4.0 mg/kg/injection, schedule: Q01DX015 (ip), vehicle: carboxymethylcellulose (CMC)",96 % of control
COc1ccc(OC)c(NC(=O)Nc2ccc(SC)cc2)c1,T/C,[10],96 % of control
same,T/C,[11],90 % of control
same,T/C,[12],98 % of control
OC(c1ccccc1)c1ccccc1 (tested in a mixture with another compound),T/C,"dose: 2.5 mg/kg/injection, schedule: Q01DX009 (ip), vehicle: acetone",107 % of control
same,T/C,"dose: 5.0 mg/kg/injection, schedule: Q01DX009 (ip), vehicle: acetone",105 % of control
same,T/C,"dose: 10.0 mg/kg/injection, schedule: Q01DX001 (ip), vehicle: saline",93 % of control
same,T/C,"dose: 10.0 mg/kg/injection, schedule: Q01DX009 (ip), vehicle: acetone",98 % of control
same,T/C,"dose: 20.0 mg/kg/injection, schedule: Q01DX001 (ip), vehicle: saline",88 % of control
O=C(c1ccccc1)c1ccc(Oc2ccccc2)cc1,T/C,[13],91 % of control
same,T/C,[14],97 % of control
same,T/C,[15],91 % of control
O=Cc1cc2ccccc2cc1O,T/C,[16],91 % of control
same,T/C,[17],94 % of control
same,T/C,[18],97 % of control
O=C(c1ccccc1)C1CSSC1c1ccccc1 (stereo not given),T/C,"dose: 12.5 mg/kg/injection, schedule: Q04DX003 (ip), vehicle: Klucel (hydroxypropylcellulose) (HPC)",100 % of control
same,T/C,"dose: 25.0 mg/kg/injection, schedule: Q04DX003 (ip), vehicle: Klucel (hydroxypropylcellulose) (HPC)",100 % of control
same,T/C,"dose: 50.0 mg/kg/injection, schedule: Q04DX003 (ip), vehicle: Klucel (hydroxypropylcellulose) (HPC)",97 % of control
Cc1cc(Cl)ccc1NC(=O)Nc1ccccc1,T/C,"dose: 100.0 mg/kg/injection, schedule: Q01DX009 (ip), vehicle: gum acacia",87 % of control
same,T/C,[13],87 % of control
same,T/C,"dose: 200.0 mg/kg/injection, schedule: Q01DX009 (ip), vehicle: gum acacia",89 % of control
same,T/C,[14],89 % of control
same,T/C,"dose: 400.0 mg/kg/injection, schedule: Q01DX009 (ip), vehicle: gum acacia",87 % of control
same,T/C,[15],90 % of control
O=C(O)CN=CC(O)C(O)C(O)C(O)CO (stereo not given),T/C,"dose: 12.5 mg/kg/injection, schedule: Q04DX002 (ip), vehicle: saline",105 % of control
same,T/C,"dose: 25.0 mg/kg/injection, schedule: Q04DX002 (ip), vehicle: saline",88 % of control
same,T/C,"dose: 50.0 mg/kg/injection, schedule: Q04DX002 (ip), vehicle: saline",105 % of control
same,T/C,[2],123 % of control
same,T/C,[3],103 % of control
same,T/C,[4],106 % of control
S=C(NCc1ccco1)Nc1ccccc1Cl,T/C,[10],100 % of control
same,T/C,[11],93 % of control
O=C(Nc1ccccc1)c1ccccc1C(O)(c1ccccc1)c1ccccc1,T/C,[5],97 % of control
same,T/C,[6],86 % of control
same,T/C,[7],102 % of control
C=CCCC1CC(C(C)C)CC2(C1)OCCO2 (stereo not given),T/C,[16],96 % of control
same,T/C,[17],96 % of control
Cc1cc(CS)c(CS)cc1C,T/C,[10],100 % of control
same,T/C,"dose: 100.0 mg/kg/injection, schedule: Q04DX003 (ip), vehicle: Klucel (hydroxypropylcellulose) (HPC)",96 % of control
same,T/C,[11],103 % of control
same,T/C,"dose: 200.0 mg/kg/injection, schedule: Q04DX003 (ip), vehicle: Klucel (hydroxypropylcellulose) (HPC)",93 % of control
same,T/C,[12],102 % of control
same,T/C,"dose: 400.0 mg/kg/injection, schedule: Q04DX003 (ip), vehicle: Klucel (hydroxypropylcellulose) (HPC)",94 % of control
CC(O)(C(=O)O)c1ccc(Cl)c(Cl)c1 (stereo not given),T/C,"dose: 12.5 mg/kg/injection, schedule: Q01DX009 (ip), vehicle: saline with Tween-80",93 % of control
same,T/C,[1],93 % of control
same,T/C,[16],89 % of control
same,T/C,[18],100 % of control
